The results in this text go back to article PMC9653409, “Generative deep learning enables the discovery of a potent and selective RIPK1 inhibitor” (Nature Communications, 2022).

The subject of one experiment is IL-6. In words: TNFα-induced SIRS mouse model: serum IL-6 (ELISA). The format is in vivo, C57BL/6 female mice. As for the experimental part: The body temperatures of the mice were continuously monitored until 6 h after TNFα administration. At 6 h after TNFα injection, four mice in each group were killed at random, and the serums, heart, liver, spleen, lung, and kidney tissues were collected for analysis.
In the TNFα-induced SIRS model, at 6 h after TNFα injection, four mice in each group were killed at random, and the serums were collected, the serum concentrations of IL-1β and IL-6 were measured using ELISA kits (Neobioscience Technology) according to manufacturer’s instructions. […] The supernatant was collected by sequential centrifugation at 500 × g for 10 min and 3000 × g for 10 min. The concentrations of cytokines TNFα, IL-6, and IL-1β were measured using ELISA kits (Neobioscience Technology).

The next experiment concerns pRIPK1, pRIPK3, pMLKL. The experiment in a line: TNFα-induced SIRS mouse model: liver western blot. The format is in vivo, C57BL/6 female mice. Conditions: 40 mg/kg i.p. Here is the method: The liver in the SIRS model and the colon in the IBD model were harvested, homogenated and sonicated in RIPA lysis buffer.
The cell proteins or tissue proteins were separated in a polyacrylamide gel and transferred to a methanol-activated polyvinylidene fluoride membrane. The membrane was blocked for 2 h in Tris-buffered saline plus Tween-20 containing 5% milk and then immunoblotted sequentially with primary and secondary antibodies. Detection was performed with an ECL chemiluminescence kit (Abbkine). The antibodies used were human RIPK1 antibody (R&D, 334640, 1:1000), mouse RIPK1 antibody (Affinity, DF2642, 1:1000), human phospho-RIP (Ser166) rabbit mAb (Cell Signaling Technologies, 65746, 1:1000), mouse phospho-RIP (Ser321) rabbit mAb (Cell Signaling Technologies, 38662, 1:1000), human RIPK3 (B-2) antibody (Santa Cruz, sc-374639, 1:250), mouse RIPK3 antibody (Abcam, ab62344, 1:1000), human anti-RIP3 (phospho S227) antibody (Abcam, ab209384, 1:2000), mouse anti-RIP3 (phospho T231 + S232) antibody (Abcam, ab205421, 1:500), anti-MLKL (58–70) antibody (Sigma, M6697, 1:250), human anti-MLKL (phospho S358) antibody (Abcam, ab187091, 1:1000), mouse anti-MLKL (phospho S345) antibody (Abcam, ab196436, 1:1000), and β-actin (Proteintech, 66009-1-Ig, 1:1000).

A further experiment has as its system DSS-induced IBD. The experiment in a line: DSS-induced IBD mouse model: survival. The format is in vivo, C57BL/6 female mice. More on the design: key to 1 means death, 0 means survival: 1 means death; 0 means survival. As for the experimental part: DSS (3% w/v) was administered in drinking water ad libitum for 7 d (from day 0 to day 7). DSS solution was replaced three times on day 2, day 4, and day 6. […] Three mice in each group were killed at random on day 7, and distal colon tissues were collected for analysis. The mice weight and survival rate were recorded daily.

The subject of a further experiment is HT29-vector cells. The experiment in a line: TSZ-induced necroptosis in HT29-vector cells (CCK8). The format is cell-based. Here is the method:
(§1) Cell necroptosis protection assays were performed in 96-well cell culture plates. Cells were plated in each well and cultured at 37 °C overnight. […] The cell survival rate was determined using a CCK8 cell viability assay kit and CLARIOstar (v5.61). […] All experiments were performed at least two times, and each EC50 value was expressed as mean ± standard deviation (SD).
(§2) The lentiCRISPRv2 vector targeting RIPK1 (sgRNA, 5’- […]-3’) was constructed by the Azenta company. HEK 293 T cells were transfected with lentiCRISPRv2 targeting RIPK1 and empty vector using Hieff Trans^TM Liposomal Transfection Reagent (Yeasen), respectively. […] The concentrated viruses were added to HT29 cells along with 8 μg/mL of polybrene (Yeasen) to enhance transfection efficiency. The infection assay was repeated in the next day under the same conditions. Finally, HT29 cells were screened with 3 μg/mL puromycin. Western blot analysis was used to confirm the RIPK1 deletion.

For experiment [1], the system named is RIPK1 knockout HT29 cells. The experiment in a line: TSZ treatment of RIPK1 knockout HT29 cells (CCK8). The format is cell-based. The following applies: Homo sapiens, HT-29, read-out: Cell Viability (%) Average. As for the experimental part: as §1, §2

“And” between values parts separate entries of the source, which are not always exact repeats. Equal entries are not always repeated.

Consider `CC(C)C(=O)Nc1nc2cc(-c3ccc4c(c3)c(C(=O)NC(C)c3ccccc3)cn4C)ccn2n1` (stereo not drawn) [RI-962], for which the “concentration of IL-6” value in the experiment on IL-6 (40 mg/kg i.p., 6 h after TNFα) is “remarkably reduced”. Moreover, the IL-6 with IL-6 (Figure 8d, individual replicates 1-4) is 652.9 pg/mL and 1655 pg/mL and 2421 pg/mL and 1071 pg/mL. The “level of pRIPK1 in liver (western blot)” value with pRIPK1, pRIPK3, pMLKL is given as “substantially reduced the level of phosphorated RIPK1 (pRIPK1)”. The same compound yielded a survival rate in the experiment with DSS-induced IBD (40 mg/kg i.p. once a day for 10 d, 3% DSS 7 d) of 100%. In addition, the “1 means death, 0 means survival” value in the experiment with DSS-induced IBD (Figure 9f, individual mice, time 14) is listed as 0. The viability at 0.000169 µM with HT29-vector cells (0.000169 μM + TSZ, read-out: Cell Viability (%) Average) amounted to 34.3%; in experiment [1] (0.000169 μM + TSZ), 89.4%. Also, the viability at 0.000508 µM in the experiment with HT29-vector cells (0.000508 μM + TSZ, read-out: Cell Viability (%) Average) was 38.1%; in experiment [1] (0.000508 μM + TSZ), 103%. The viability at 0.001524 µM with HT29-vector cells (0.001524 μM + TSZ, read-out: Cell Viability (%) Average) turned out to be 41.2%; in experiment [1] (0.001524 μM + TSZ) it was 87.5%. Also, the viability at 0.004572 µM in the experiment with HT29-vector cells (0.004572 μM + TSZ, read-out: Cell Viability (%) Average) was 64.8%; in experiment [1] (0.004572 μM + TSZ), 87.3%. The viability at 0.013717 µM is 108% in the experiment with HT29-vector cells (0.013717 μM + TSZ, read-out: Cell Viability (%) Average) and 90.8% in experiment [1] (0.013717 μM + TSZ). Also, the viability at 0.041152 µM in the experiment on HT29-vector cells (0.041152 μM + TSZ, read-out: Cell Viability (%) Average) turned out to be 109%; in experiment [1] (0.041152 μM + TSZ), 90.1%. The viability at 0.123457 µM in the experiment with HT29-vector cells (0.123457 μM + TSZ, read-out: Cell Viability (%) Average) worked out at 110%; in experiment [1] (0.123457 μM + TSZ), 94.4%. Moreover, the viability at 0.37037 µM came to 113% in the experiment on HT29-vector cells (0.370370 μM + TSZ, read-out: Cell Viability (%) Average) and 104% in experiment [1] (0.370370 μM + TSZ). Besides, the viability at 1.11111 µM came out at 102% in the experiment on HT29-vector cells (1.111111 μM + TSZ, read-out: Cell Viability (%) Average) and 97.9% in experiment [1] (1.111111 μM + TSZ). In the experiment with HT29-vector cells (HT29-vector, TSZ), this compound came in with an EC50 of 4.2 ± 0.2 nM.
